Laboratory results taken from patent publication US20240247035A1, “STAPLED ANTIMICROBIAL PEPTIDES (STAMPS) AND USES THEREOF” (Lytica Therapeutics, Inc., priority 2021, published 2024).
Values after ≈ are worked out from the molar mass of the structure shown. Bridge positions count the residues as written; N and C are the ends. Square brackets hold non-standard residues; d marks the D form. Peptide text beside a SMILES is read from it. Phe(4-tBu) = CC(C)(C)c1ccc(C[C@H](N)C(=O)O)cc1; S5 = C=CCCC[C@](C)(N)C(=O)O

Experiments:
[1] = 90 minute cytotoxicity assay (LDH release), renal toxicity; type: cell-based; settings: human
Experimental: (§1) Cell culture: RPTEC were maintained in MEM media supplemented with growth factors. HEPG2 cell line was maintained in Eagle's Minimum Essential Medium (EMEM) supplemented with fetal bovine serum to a final concentration of 10%.
90 minute cytotoxicity assay: Cells were plated in a 96-well format, and after overnight incubation, media was replaced with fresh media. Serial dilutions of StAMPs from a 5 mg/mL water stock, or vehicle, were added to the cells in a final volume of 100 μl. After incubating at 37° C. for 90 min, 50 μl of cell culture media was transferred to a clear 96-well plate, incubated with 50 μl of lactate dehydrogenase (LDH) assay reagent for 10 min, and absorbance measured at 490 nm on a microplate reader.
(§2) Renal toxicity was measured after 90 minutes of incubation, while liver toxicity was measured after 48 hours of incubation with StAMPs. N/A=not tested.

[2] = 48 hours cytotoxicity assay (CellTiter-Glo), liver toxicity; type: cell-based; settings: human
Experimental: as §1
48 hours cytotoxicity assay: Cells were plated in a 96-well format, and after 4 hour incubation to allow attachment, serial dilutions of StAMPs from a 5 mg/mL water stock, or vehicle, were then added to the cells in a final volume of 100 μl. After incubating at 37° C. for 48 hours, 100 μl of CellTiter-Glo® reagent was added to the cells, and the plates were incubated 10 minutes at room temperature. Luminescence was then measured on a microplate reader.
as §2

SMILES	IC50 at 90 min [1] [µg/mL]	IC50 at 48 hours [2] [µg/mL]
CC[C@H](C)[C@H](NC(=O)[C@H](CCCCN)NC(=O)[C@H](CCCCN)NC(=O)CNC(=O)[C@H](CCCCN)NC(=O)[C@]1(C)CCCC=CCCC[C@](C)(NC(=O)CN)C(=O)N[C@@H](CCCCN)C(=O)N[C@@H](CO)C(=O)N[C@@H](CCCCN)C(=O)N1)C(=O)N[C@@H](CCCCN)C(=O)N[C@@H](CC(N)=O)C(=O)N[C@@H](Cc1ccc(C(C)(C)C)cc1)C(=O)N[C@@]1(C)CCCC=CCCC[C@@](C)(C(=O)N[C@@H](CCCCN)C(=O)N[C@@H](CC(N)=O)C(N)=O)NC(=O)CNC(=O)[C@H](CO)NC(=O)[C@H]([C@@H](C)CC)NC1=O [compound 19] (H-G[S5]KSK[S5]KGKKIKN[Phe(4-tBu)][S5]ISG[S5]KN-NH2; staple 2-6, 15-19)	68 (≈ 28.1 µM)	23 (≈ 9.51 µM)
CC[C@H](C)[C@H](NC(=O)[C@H](CCCCN)NC(=O)[C@H](CCCCN)NC(=O)CNC(=O)[C@H](CCCCN)NC(=O)[C@]1(C)CCCC=CCCC[C@](C)(NC(=O)CN)C(=O)N[C@@H](CCCCN)C(=O)N[C@@H](CO)C(=O)N[C@@H](CCCCN)C(=O)N1)C(=O)N[C@@H](CCCCN)C(=O)N[C@@H](CC(N)=O)C(=O)N[C@@H](CC(C)C)C(=O)N[C@@]1(C)CCCC=CCCC[C@@](C)(C(=O)N[C@@H](CCCCN)C(=O)N[C@@H](CC(N)=O)C(N)=O)NC(=O)CNC(=O)[C@H](CO)NC(=O)[C@H](Cc2ccc(C(C)(C)C)cc2)NC1=O [compound 20] (H-G[S5]KSK[S5]KGKKIKNL[S5][Phe(4-tBu)]SG[S5]KN-NH2; staple 2-6, 15-19)	46 (≈ 19 µM)	29 (≈ 12 µM)
CC[C@H](C)[C@H](NC(=O)[C@H](CCCCN)NC(=O)[C@H](CCCCN)NC(=O)CNC(=O)[C@H](CCCCN)NC(=O)[C@]1(C)CCCC=CCCC[C@](C)(NC(=O)CN)C(=O)N[C@@H](CCCCN)C(=O)N[C@@H](CO)C(=O)N[C@@H](CCCCN)C(=O)N1)C(=O)N[C@@H](CCCCN)C(=O)N[C@@H](CC(N)=O)C(=O)N[C@@H](CC(C)C)C(=O)N[C@@]1(C)CCCC=CCCC[C@@](C)(C(=O)N[C@@H](CCCCN)C(=O)N[C@@H](CC(N)=O)C(N)=O)NC(=O)[C@H](C(C)C)NC(=O)[C@H](CO)NC(=O)[C@H]([C@@H](C)CC)NC1=O [compound 21] (H-G[S5]KSK[S5]KGKKIKNL[S5]ISV[S5]KN-NH2; staple 2-6, 15-19)	54 (≈ 22.8 µM)	32 (≈ 13.5 µM)
CC[C@H](C)[C@H](NC(=O)[C@H](CCCCN)NC(=O)[C@H](CCCCN)NC(=O)CNC(=O)[C@H](CCCCN)NC(=O)[C@]1(C)CCCC=CCCC[C@](C)(NC(=O)CN)C(=O)N[C@@H](CCCCN)C(=O)N[C@@H](CO)C(=O)N[C@@H](CCCCN)C(=O)N1)C(=O)N[C@@H](CCCCN)C(=O)N[C@@H](CC(N)=O)C(=O)N[C@@H](CC(C)C)C(=O)N[C@@]1(C)CCCC=CCCC[C@@](C)(C(=O)N[C@@H](CCCCN)C(=O)N[C@@H](CC(N)=O)C(N)=O)NC(=O)[C@H](Cc2ccccc2)NC(=O)[C@H](CO)NC(=O)[C@H]([C@@H](C)CC)NC1=O [compound 22] (H-G[S5]KSK[S5]KGKKIKNL[S5]ISF[S5]KN-NH2; staple 2-6, 15-19)	16 (≈ 6.62 µM)	67 (≈ 27.7 µM)
CC[C@H](C)[C@H](NC(=O)[C@H](CCCCN)NC(=O)[C@H](CCCCN)NC(=O)CNC(=O)[C@H](CCCCN)NC(=O)[C@]1(C)CCCC=CCCC[C@](C)(NC(=O)CN)C(=O)N[C@@H](CCCCN)C(=O)N[C@@H](CO)C(=O)N[C@@H](CCCCN)C(=O)N1)C(=O)N[C@@H](CCCCN)C(=O)N[C@@H](CC(N)=O)C(=O)N[C@@H](CC(C)C)C(=O)N[C@@]1(C)CCCC=CCCC[C@@](C)(C(=O)N[C@@H](CCCCN)C(=O)N[C@@H](CC(N)=O)C(=O)N[C@@H](CCC(=O)O)C(N)=O)NC(=O)[C@H](Cc2ccccc2)NC(=O)[C@H](CO)NC(=O)[C@H]([C@@H](C)CC)NC1=O [compound 23] (H-G[S5]KSK[S5]KGKKIKNL[S5]ISF[S5]KNE-NH2; staple 2-6, 15-19)	62 (≈ 24.3 µM)	53 (≈ 20.8 µM)
CC[C@H](C)[C@H](NC(=O)[C@H](CCCCN)NC(=O)[C@H](CCCCN)NC(=O)CNC(=O)[C@H](CCCCN)NC(=O)[C@]1(C)CCCC=CCCC[C@](C)(NC(=O)CN)C(=O)N[C@@H](CCCCN)C(=O)N[C@@H](CO)C(=O)N[C@@H](CCCCN)C(=O)N1)C(=O)N[C@@H](CCCCN)C(=O)N[C@@H](CC(N)=O)C(=O)N[C@@H](CC(C)C)C(=O)N[C@@]1(C)CCCC=CCCC[C@@](C)(C(=O)N[C@@H](CCCCN)C(=O)N[C@@H](CC(N)=O)C(=O)NCC(=O)NCC(=O)NCC(=O)N[C@@H](CCC(=O)O)C(N)=O)NC(=O)[C@H](Cc2ccccc2)NC(=O)[C@H](CO)NC(=O)[C@H]([C@@H](C)CC)NC1=O [compound 24] (H-G[S5]KSK[S5]KGKKIKNL[S5]ISF[S5]KNGGGE-NH2; staple 2-6, 15-19)	112 (≈ 41.2 µM)	16 (≈ 5.89 µM)
CC[C@H](C)[C@H](NC(=O)[C@H](CCCCN)NC(=O)[C@H](CCCCN)NC(=O)CNC(=O)[C@H](CCCCN)NC(=O)[C@]1(C)CCCC=CCCC[C@](C)(NC(=O)[C@@H](N)CCCCN)C(=O)N[C@@H](Cc2ccccc2)C(=O)N[C@@H](CO)C(=O)N[C@@H](CCCCN)C(=O)N1)C(=O)N[C@@H](CCCCN)C(=O)N[C@@H](CC(N)=O)C(=O)N[C@@H](CC(C)C)C(=O)N[C@@]1(C)CCCC=CCCC[C@@](C)(C(=O)N[C@@H](CCCCN)C(=O)NCC(N)=O)NC(=O)CNC(=O)[C@H](CO)NC(=O)[C@H]([C@@H](C)CC)NC1=O [compound 25] (H-K[S5]FSK[S5]KGKKIKNL[S5]ISG[S5]KG-NH2; staple 2-6, 15-19)	109 (≈ 46.2 µM)	49 (≈ 20.8 µM)
CC[C@H](C)[C@H](NC(=O)[C@H](CCCCN)NC(=O)[C@H](CCCCN)NC(=O)CNC(=O)[C@H](CCCCN)NC(=O)[C@]1(C)CCCC=CCCC[C@](C)(NC(=O)CN)C(=O)N[C@@H](Cc2ccccc2)C(=O)N[C@@H](CCCCN)C(=O)N[C@@H](CCCCN)C(=O)N1)C(=O)N[C@@H](CCCCN)C(=O)N[C@@H](CC(N)=O)C(=O)N[C@@H](CC(C)C)C(=O)N[C@@]1(C)CCCC=CCCC[C@@](C)(C(=O)N[C@@H](CCCCN)C(=O)NCC(N)=O)NC(=O)CNC(=O)[C@H](CO)NC(=O)[C@H]([C@@H](C)CC)NC1=O [compound 26] (H-G[S5]FKK[S5]KGKKIKNL[S5]ISG[S5]KG-NH2; staple 2-6, 15-19)	32 (≈ 13.7 µM)	27 (≈ 11.6 µM)
CC[C@H](C)[C@H](NC(=O)[C@H](CCCCN)NC(=O)[C@H](CCCCN)NC(=O)[C@H](CCCCN)NC(=O)[C@H](CCCCN)NC(=O)[C@]1(C)CCCC=CCCC[C@](C)(NC(=O)CN)C(=O)N[C@@H](Cc2ccccc2)C(=O)N[C@@H](CO)C(=O)N[C@@H](CCCCN)C(=O)N1)C(=O)N[C@@H](CCCCN)C(=O)N[C@@H](CC(N)=O)C(=O)N[C@@H](CC(C)C)C(=O)N[C@@]1(C)CCCC=CCCC[C@@](C)(C(=O)N[C@@H](CCCCN)C(=O)NCC(N)=O)NC(=O)CNC(=O)[C@H](CO)NC(=O)[C@H]([C@@H](C)CC)NC1=O [compound 27] (H-G[S5]FSK[S5]KKKKIKNL[S5]ISG[S5]KG-NH2; staple 2-6, 15-19)	42 (≈ 17.8 µM)	35 (≈ 14.8 µM)
